Source: the NIST ThermoML archive (doi:10.1016/j.fluid.2008.02.021)
Numbers after ± are expanded uncertainties.

Key:
[1] = excess molar enthalpy (molar enthalpy of mixing); xn = mol fraction of the nth substance listed; conditions: Liquid, Flow calorimetry
[2] = for vapor or sublimation pressure: Liquid, Closed cell (Static) method; for Normal melting temperature: Crystal

OC1CCCCC1 [cyclohexanol] + O=C1CCCCC1
excess molar enthalpy ([1]; 363.15 K, 1651 kPa, x2 = 0.051): 0.065 ± 0.000884 kcal/mol
excess molar enthalpy ([1]; 363.15 K, 1651 kPa, x2 = 0.102): 0.124 ± 0.00148 kcal/mol
excess molar enthalpy ([1]; 363.15 K, 1651 kPa, x2 = 0.153): 0.175 ± 0.00198 kcal/mol
excess molar enthalpy ([1]; 363.15 K, 1651 kPa, x2 = 0.204): 0.22 ± 0.00239 kcal/mol
excess molar enthalpy ([1]; 363.15 K, 1651 kPa, x2 = 0.254): 0.255 ± 0.00287 kcal/mol
excess molar enthalpy ([1]; 363.15 K, 1651 kPa, x2 = 0.305): 0.285 ± 0.00311 kcal/mol
excess molar enthalpy ([1]; 363.15 K, 1651 kPa, x2 = 0.355): 0.307 ± 0.00335 kcal/mol
excess molar enthalpy ([1]; 363.15 K, 1651 kPa, x2 = 0.406): 0.321 ± 0.00335 kcal/mol
excess molar enthalpy ([1]; 363.15 K, 1651 kPa, x2 = 0.456): 0.33 ± 0.00359 kcal/mol
excess molar enthalpy ([1]; 363.15 K, 1651 kPa, x2 = 0.506): 0.334 ± 0.00359 kcal/mol
excess molar enthalpy ([1]; 363.15 K, 1651 kPa, x2 = 0.555): 0.328 ± 0.00359 kcal/mol
excess molar enthalpy ([1]; 363.15 K, 1651 kPa, x2 = 0.605): 0.316 ± 0.00335 kcal/mol
excess molar enthalpy ([1]; 363.15 K, 1651 kPa, x2 = 0.655): 0.299 ± 0.00311 kcal/mol
excess molar enthalpy ([1]; 363.15 K, 1651 kPa, x2 = 0.705): 0.275 ± 0.00311 kcal/mol
excess molar enthalpy ([1]; 363.15 K, 1651 kPa, x2 = 0.754): 0.244 ± 0.00263 kcal/mol
excess molar enthalpy ([1]; 363.15 K, 1651 kPa, x2 = 0.803): 0.208 ± 0.00232 kcal/mol
excess molar enthalpy ([1]; 363.15 K, 1651 kPa, x2 = 0.853): 0.164 ± 0.00189 kcal/mol
excess molar enthalpy ([1]; 363.15 K, 1651 kPa, x2 = 0.902): 0.115 ± 0.00139 kcal/mol
excess molar enthalpy ([1]; 363.15 K, 1651 kPa, x2 = 0.951): 0.0595 ± 0.000837 kcal/mol
excess molar enthalpy ([1]; 413.15 K, 1582 kPa, x2 = 0.051): 0.0388 ± 0.000621 kcal/mol
excess molar enthalpy ([1]; 413.15 K, 1582 kPa, x2 = 0.102): 0.0744 ± 0.00098 kcal/mol
excess molar enthalpy ([1]; 413.15 K, 1582 kPa, x2 = 0.153): 0.106 ± 0.00129 kcal/mol
excess molar enthalpy ([1]; 413.15 K, 1582 kPa, x2 = 0.203): 0.134 ± 0.00158 kcal/mol
excess molar enthalpy ([1]; 413.15 K, 1582 kPa, x2 = 0.254): 0.157 ± 0.00182 kcal/mol
excess molar enthalpy ([1]; 413.15 K, 1582 kPa, x2 = 0.304): 0.175 ± 0.00198 kcal/mol
excess molar enthalpy ([1]; 413.15 K, 1582 kPa, x2 = 0.355): 0.19 ± 0.00213 kcal/mol
excess molar enthalpy ([1]; 413.15 K, 1582 kPa, x2 = 0.405): 0.199 ± 0.00222 kcal/mol
excess molar enthalpy ([1]; 413.15 K, 1582 kPa, x2 = 0.455): 0.204 ± 0.00227 kcal/mol
excess molar enthalpy ([1]; 413.15 K, 1582 kPa, x2 = 0.505): 0.206 ± 0.00229 kcal/mol
excess molar enthalpy ([1]; 413.15 K, 1582 kPa, x2 = 0.555): 0.202 ± 0.00227 kcal/mol
excess molar enthalpy ([1]; 413.15 K, 1582 kPa, x2 = 0.605): 0.195 ± 0.0022 kcal/mol
excess molar enthalpy ([1]; 413.15 K, 1582 kPa, x2 = 0.655): 0.183 ± 0.00215 kcal/mol
excess molar enthalpy ([1]; 413.15 K, 1582 kPa, x2 = 0.704): 0.168 ± 0.00191 kcal/mol
excess molar enthalpy ([1]; 413.15 K, 1582 kPa, x2 = 0.754): 0.148 ± 0.00172 kcal/mol
excess molar enthalpy ([1]; 413.15 K, 1582 kPa, x2 = 0.803): 0.126 ± 0.00151 kcal/mol
excess molar enthalpy ([1]; 413.15 K, 1582 kPa, x2 = 0.853): 0.0985 ± 0.0012 kcal/mol
excess molar enthalpy ([1]; 413.15 K, 1582 kPa, x2 = 0.902): 0.0681 ± 0.000908 kcal/mol
excess molar enthalpy ([1]; 413.15 K, 1582 kPa, x2 = 0.951): 0.035 ± 0.000598 kcal/mol

CCCCCCC(C)=O [2-octanone] + CCCCCCO
excess molar enthalpy ([1]; 363.15 K, 1617 kPa, x2 = 0.062): 0.0819 ± 0.00105 kcal/mol
excess molar enthalpy ([1]; 363.15 K, 1617 kPa, x2 = 0.122): 0.152 ± 0.00177 kcal/mol
excess molar enthalpy ([1]; 363.15 K, 1617 kPa, x2 = 0.181): 0.21 ± 0.00239 kcal/mol
excess molar enthalpy ([1]; 363.15 K, 1617 kPa, x2 = 0.238): 0.257 ± 0.00287 kcal/mol
excess molar enthalpy ([1]; 363.15 K, 1617 kPa, x2 = 0.294): 0.292 ± 0.00311 kcal/mol
excess molar enthalpy ([1]; 363.15 K, 1617 kPa, x2 = 0.349): 0.319 ± 0.00335 kcal/mol
excess molar enthalpy ([1]; 363.15 K, 1617 kPa, x2 = 0.402): 0.335 ± 0.00359 kcal/mol
excess molar enthalpy ([1]; 363.15 K, 1617 kPa, x2 = 0.455): 0.344 ± 0.00359 kcal/mol
excess molar enthalpy ([1]; 363.15 K, 1617 kPa, x2 = 0.506): 0.345 ± 0.00359 kcal/mol
excess molar enthalpy ([1]; 363.15 K, 1617 kPa, x2 = 0.557): 0.341 ± 0.00359 kcal/mol
excess molar enthalpy ([1]; 363.15 K, 1617 kPa, x2 = 0.605): 0.327 ± 0.00359 kcal/mol
excess molar enthalpy ([1]; 363.15 K, 1617 kPa, x2 = 0.652): 0.31 ± 0.00335 kcal/mol
excess molar enthalpy ([1]; 363.15 K, 1617 kPa, x2 = 0.699): 0.287 ± 0.00311 kcal/mol
excess molar enthalpy ([1]; 363.15 K, 1617 kPa, x2 = 0.745): 0.259 ± 0.00287 kcal/mol
excess molar enthalpy ([1]; 363.15 K, 1617 kPa, x2 = 0.79): 0.227 ± 0.00263 kcal/mol
excess molar enthalpy ([1]; 363.15 K, 1617 kPa, x2 = 0.833): 0.19 ± 0.00213 kcal/mol
excess molar enthalpy ([1]; 363.15 K, 1617 kPa, x2 = 0.876): 0.148 ± 0.00172 kcal/mol
excess molar enthalpy ([1]; 363.15 K, 1617 kPa, x2 = 0.918): 0.102 ± 0.00127 kcal/mol
excess molar enthalpy ([1]; 363.15 K, 1617 kPa, x2 = 0.96): 0.0525 ± 0.000765 kcal/mol
excess molar enthalpy ([1]; 413.15 K, 1617 kPa, x2 = 0.062): 0.059 ± 0.000956 kcal/mol
excess molar enthalpy ([1]; 413.15 K, 1617 kPa, x2 = 0.122): 0.112 ± 0.00136 kcal/mol
excess molar enthalpy ([1]; 413.15 K, 1617 kPa, x2 = 0.181): 0.157 ± 0.00182 kcal/mol
excess molar enthalpy ([1]; 413.15 K, 1617 kPa, x2 = 0.238): 0.194 ± 0.00217 kcal/mol
excess molar enthalpy ([1]; 413.15 K, 1617 kPa, x2 = 0.294): 0.222 ± 0.00239 kcal/mol
excess molar enthalpy ([1]; 413.15 K, 1617 kPa, x2 = 0.349): 0.244 ± 0.00263 kcal/mol
excess molar enthalpy ([1]; 413.15 K, 1617 kPa, x2 = 0.402): 0.259 ± 0.00287 kcal/mol
excess molar enthalpy ([1]; 413.15 K, 1617 kPa, x2 = 0.455): 0.268 ± 0.00287 kcal/mol
excess molar enthalpy ([1]; 413.15 K, 1617 kPa, x2 = 0.506): 0.271 ± 0.00287 kcal/mol
excess molar enthalpy ([1]; 413.15 K, 1617 kPa, x2 = 0.556): 0.269 ± 0.00287 kcal/mol
excess molar enthalpy ([1]; 413.15 K, 1617 kPa, x2 = 0.605): 0.26 ± 0.00287 kcal/mol
excess molar enthalpy ([1]; 413.15 K, 1617 kPa, x2 = 0.652): 0.247 ± 0.00263 kcal/mol
excess molar enthalpy ([1]; 413.15 K, 1617 kPa, x2 = 0.699): 0.229 ± 0.00263 kcal/mol
excess molar enthalpy ([1]; 413.15 K, 1617 kPa, x2 = 0.745): 0.206 ± 0.00229 kcal/mol
excess molar enthalpy ([1]; 413.15 K, 1617 kPa, x2 = 0.79): 0.181 ± 0.00206 kcal/mol
excess molar enthalpy ([1]; 413.15 K, 1617 kPa, x2 = 0.833): 0.152 ± 0.00177 kcal/mol
excess molar enthalpy ([1]; 413.15 K, 1617 kPa, x2 = 0.876): 0.12 ± 0.00143 kcal/mol
excess molar enthalpy ([1]; 413.15 K, 1617 kPa, x2 = 0.918): 0.0838 ± 0.00108 kcal/mol
excess molar enthalpy ([1]; 413.15 K, 1617 kPa, x2 = 0.96): 0.0429 ± 0.000669 kcal/mol

CCCCCCC(C)=O [2-octanone]
vapor or sublimation pressure ([2]; 323.15 K): 0.8706 ± 0.021 kPa
vapor or sublimation pressure ([2]; 363.15 K): 6.397 ± 0.047 kPa
Normal melting temperature [2]: -19.7 ± 0.3 °C

O=C1CCCCC1 [cyclohexanone]
vapor or sublimation pressure ([2]; 323.15 K): 2.23 ± 0.028 kPa
vapor or sublimation pressure ([2]; 363.15 K): 13.05 ± 0.059 kPa
Normal melting temperature ([2]; visual observation): -27.2 ± 0.2 °C

OC1CCCCC1 [cyclohexanol]
vapor or sublimation pressure ([2]; 323.15 K): 0.7399 ± 0.016 kPa
vapor or sublimation pressure ([2]; 363.15 K): 6.882 ± 0.039 kPa
Normal melting temperature ([2]; visual observation): 24.1 ± 0.2 °C

CCCCCCO [hexan-1-ol]
vapor or sublimation pressure ([2]; 323.15 K): 0.7226 ± 0.027 kPa
vapor or sublimation pressure ([2]; 363.15 K): 7.229 ± 0.049 kPa
Normal melting temperature [2]: -44 ± 1 °C
